{"source": "ChEMBL document CHEMBL4190214", "about": "“Identification of BMI1 Promoter Inhibitors from Beaumontia murtonii and Eugenia operculata” (J Nat Prod, 2017)", "key": {"[1]": {"test": "Inhibition of BMI1 promoter (unknown origin) expressed in HEK293T cells after 24 hrs by luciferase reporter gene assay", "format": "cell-based", "conditions": "HEK-293T"}, "[2]": {"organism": "Homo sapiens", "test": "Inhibition of BMI1 promoter in human HCT116 cells assessed as decrease in BMI1 protein expression levels after 24 hrs by Western blot analysis", "format": "cell-based"}, "[3]": {"system": "DU-145", "test": "Cytotoxicity against human DU145 cells after 24 hrs by fluorescein diacetate staining-based fluorescence assay", "format": "functional, cell-based", "conditions": "DU-145, 24 h"}, "[4]": {"system": "HCT-116", "test": "Cytotoxicity against human HCT116 cells after 24 hrs by fluorescein diacetate staining-based fluorescence assay", "format": "functional, cell-based", "conditions": "HCT-116, 24 h"}, "[5]": {"system": "HEK293", "test": "Cytotoxicity against HEK293 cells after 24 hrs by fluorescein diacetate staining-based fluorescence assay", "format": "cell-based", "conditions": "Homo sapiens, HEK293, 24 h"}, "[6]": {"system": "Huh-7", "test": "Inhibition of self-renewal capacity of human EpCAM-positive HuH7 cells assessed as reduction in sphere formation after 6 days", "format": "functional, cell-based"}, "[7]": {"system": "Huh-7", "test": "Inhibition of self-renewal of human HuH7 cells assessed as EpCAM positive fraction at 0.5 uM after 20 mins by propidium iodide staining-based flow cytometric analysis (reference value: 91.2 %)", "format": "functional", "parameters": "scale not given: the % may be the effect or the level left"}, "[8]": {"system": "Huh-7", "test": "Inhibition of self-renewal of human HuH7 cells assessed as EpCAM positive fraction at 5 uM after 20 mins by propidium iodide staining-based flow cytometric analysis (reference value: 91.2 %)", "format": "functional", "parameters": "scale not given: the % may be the effect or the level left"}, "[9]": {"system": "Huh-7", "test": "Inhibition of self-renewal of human HuH7 cells assessed as EpCAM negative fraction at 0.5 uM after 20 mins by propidium iodide staining-based flow cytometric analysis (reference value: 8.8 %)", "format": "functional", "parameters": "scale not given: the % may be the effect or the level left"}, "[10]": {"system": "Huh-7", "test": "Inhibition of self-renewal of human HuH7 cells assessed as EpCAM negative fraction at 5 uM after 20 mins by propidium iodide staining-based flow cytometric analysis (reference value: 8.8 %)", "format": "functional", "parameters": "scale not given: the % may be the effect or the level left"}, "[11]": {"system": "Huh-7", "test": "Inhibition of self-renewal of human HuH7 cells assessed as reduction in EpCAM positive fraction at 50 uM after 20 mins by propidium iodide staining-based flow cytometric analysis", "format": "functional", "conditions": "Huh-7, 20 min"}}}
{"smiles": "CO[C@@H]1C[C@H](O[C@H]2CC[C@@]3(C)[C@H](CC[C@@H]4[C@@H]3CC[C@]3(C)[C@@H](C5=CC(=O)OC5)CC[C@]43O)C2)O[C@@H](C)[C@@H]1O", "values": [{"measurement": "IC50", "setting": "[1]", "value": 0.093, "unit": "µM"}, {"measurement": "inhibition", "setting": "[2]", "value": "Dose-dependent effect"}, {"measurement": "IC50", "setting": "[3]", "value": 0.14, "unit": "µM"}, {"measurement": "IC50", "setting": "[4]", "value": 0.058, "unit": "µM"}, {"measurement": "IC50", "setting": "[5]", "value": 5, "unit": "µM"}, {"measurement": "inhibition", "setting": "[6]", "value": "Dose-dependent effect"}, {"measurement": "Activity", "setting": "[7]", "value": 80.1, "unit": "%"}, {"measurement": "Activity", "setting": "[8]", "value": 72.9, "unit": "%"}, {"measurement": "Activity", "setting": "[9]", "value": 19.9, "unit": "%"}, {"measurement": "Activity", "setting": "[10]", "value": 27.1, "unit": "%"}]}
{"smiles": "CC1(C)CC[C@]2(C(=O)O)CC[C@]3(C)C(=CC[C@@H]4[C@@]5(C)C[C@@H](O)[C@H](O)C(C)(C)[C@@H]5CC[C@]43C)[C@@H]2C1", "note": "[MASLINIC ACID]", "values": [{"measurement": "IC50", "setting": "[1]", "value": 22.7, "unit": "µM"}]}
{"smiles": "C=C(C)[C@@H]1CC[C@]2(C(=O)OC)CC[C@]3(C(=O)O)[C@H](CC[C@@H]4[C@@]5(C)CC[C@H](O)C(C)(C)[C@@H]5CC[C@]43C)[C@@H]12", "values": [{"measurement": "IC50", "setting": "[1]", "value": 19.5, "unit": "µM"}]}
{"smiles": "C[C@]12CC[C@H](O)C[C@H]1CC[C@@H]1[C@@H]2CC[C@]2(C)[C@@H](C3=CC(=O)OC3)CC[C@]12O", "note": "[DIGITOXIGENIN]", "values": [{"measurement": "IC50", "setting": "[1]", "value": 1.7, "unit": "µM"}]}
{"smiles": "CO[C@H]1C[C@H](O[C@H]2CC[C@@]3(C)[C@H](CC[C@@H]4[C@@H]3CC[C@]3(C)[C@@H](C5=CC(=O)OC5)CC[C@]43O)C2)O[C@H](C)[C@H]1O", "values": [{"measurement": "IC50", "setting": "[1]", "value": 0.098, "unit": "µM"}]}
{"smiles": "CO[C@H]1C[C@@H](O[C@H]2CC[C@@]3(C)[C@H](CC[C@@H]4[C@@H]3CC[C@]3(C)[C@@H](C5=CC(=O)OC5)CC[C@]43O)C2)O[C@@H](C)[C@@H]1O", "values": [{"measurement": "IC50", "setting": "[1]", "value": 0.45, "unit": "µM"}]}
{"smiles": "O=[N+]([O-])c1ccc(Nc2ccccc2-c2ccccc2)c2nonc12", "values": [{"measurement": "inhibition at 50 µM", "setting": "[11]", "value": "30 to 40", "unit": "%"}]}
